Where two headings read alike, the source gives them in different places.

The values below come from patent publication US10696686B2, “Herbicidally active (alkynyl-phenyl)-substituted cyclic dione compounds and derivatives thereof” (Syngenta Limited, priority 2013, dated 2020).

Common to all, as to assay type: in vivo
Experiment [1] relates to Alopecurus myosuroides (ALOMY). In words: Biological Example 1A glasshouse assay, post-emergence application. As to conditions: 13 days after application. The essentials:
(§1)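 Sow in sand/sandy loam; grow 1 d (pre-emergence) or 8 d (post-emergence) at 24/16 °C, 14 h light, 65% humidity; spray aqueous dilution of acetone/water (50:50) formulation with 0.5% Tween 20; water twice daily; rate damage visually after 13 days.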

The subject of experiment [2] is Amaranthus retroflexus (AMARE). The description is as above. The conditions noted are these: 312 h, read-out: Percentage phytotoxicity AMARE. The essentials: as §1
Experiment [3] relates to Setaria faberi (SETFA). Described as above. The conditions noted are these: Setaria faberi, post-emergence, 312 h, read-out: Percentage phytotoxicity SETFA. The essentials: as §1
Experiment [4] relates to Setaria faberi (SETFA). The experiment in a line: Biological Example 3 glasshouse assay using various adjuvant systems, post-emergence foliar spray. As to conditions: 8 g/ha. As to the method:
Post-emergence foliar spray application, 200 L/ha, usually one or two replicates for the weeds (depending on application rate), and two replicates for soybean.
Standard warm conditions (tropical), in glasshouse. Specifically, the glasshouse bay conditions are 24° C./18° C. day/night; 16/8 hours light/dark; 65% humidity.
The herbicidal application takes place at the following growth stages for plants which include inter alia one or more of the following plants (usually the herbicidal application takes place on at least the following plants: DIGSA, ELEIN, SETFA, ZEAMX, GLXMA Nikko, and GLXMA TMG133, and often also either BRADC or BRAPP):
Setaria faberi (SETFA)—growth stage 12 or 13
Each test compound is applied with one of the following adjuvant systems (all percentages are final concentrations in the aqueous spray mixture):
Adjuvant system 1: 0.5% v/v Adigor™ *, 1.0% v/v AMS (ammonium sulphate) and 12.5% v/v IPA (isopropyl alcohol).
Adjuvant system 1A: 0.5% v/v Adigor™ * and 12.5% v/v IPA (isopropyl alcohol).
CAS Registry no. […] A visual assessment of the % herbicidal damage is made 7 and 14 Days After herbicide Application (DAA) (or, in a minority of cases, 7 and 15 DAA), and the results are recorded as % visual herbicidal damage where 0%=no damage to plants and 100%=plant totally killed. *** Adjuvant system=either Adigor™ or Hexamoll DINCH™ or tris-(2-ethylhexyl) phosphate each at 0.5% v/v, and 12.5% v/v IPA (isopropyl alcohol), and 1.0% v/v AMS (ammonium sulphate); or 0.5% v/v Adigor™ and 12.5% v/v IPA (isopropyl alcohol); all percentages are final concentrations in the aqueous spray mixture. […]
The percentages of herbicidal damage/plant control, at 14 Days After herbicide Application (DAA) (or, in a minority of cases, at 15 DAA), for the Compounds tested and for some of the plants tested, were in the following percentage ranges. […] Phytotoxicity on Glycine max (GLXMA, Soybean) Cultivar “TMG133” Glycine max (GLXMA, soybean) cultivar “TMG133” is Roundup Ready™ glyphosate-tolerant soybean cultivar TMG133, and is typically available from Monsanto in Brazil.

The mark [5] stands for this setting: 30 g/ha, 13 days after application.
Where [6] appears, read: 250 g/ha, 13 days after application.

As to `C#CCC1CC(=O)C(c2c(F)cc(C#CC)cc2OC)C1=O` (centres unmarked) [Compound A8, 2-(2-fluoro-6-methoxy-4-prop-1-ynyl-phenyl)-4-prop-2-ynyl-cyclopentane-1,3-dione], the results for the “Percentage phytotoxicity ALOMY” value in experiment [1] (30 g/ha) and in experiment [1] (250 g/ha) were 70% and 90%, respectively. For the same compound, the pest or weed control at 30 g/ha in experiment [2] was determined as 0%; with Setaria faberi (SETFA) [3], 80%. Also, the pest or weed control at 250 g/ha in experiment [2] is 0%; with Setaria faberi (SETFA) [3] it was 100%. For the same compound, the “percentage control of (phytotoxicity on) Setaria faberi (SETFA)” value with Setaria faberi (SETFA) [4] (14 DAA, adjuvant 0.5% v/v Adigor + 12.5% v/v IPA) stood at 75%.
Consider `CC#Cc1cc(F)c(C2C(=O)CC(CCSC)CC2=O)c(OC)c1` (centres unmarked) [Compound A11], for which the results for the “Percentage phytotoxicity ALOMY” value in experiment [1] (30 g/ha) and in experiment [1] (250 g/ha) were 0% and 10%, respectively. Further, the pest or weed control at 30 g/ha (in experiment [2] (setting [5]); in the experiment with Setaria faberi (SETFA) [3] (setting [5])) was 30% each time. Further, the pest or weed control at 250 g/ha in experiment [2] (setting [6]) stood at 50%; in the experiment with Setaria faberi (SETFA) [3] (setting [6]), 60%. Moreover, the “percentage control of Setaria faberi (SETFA)” value in the experiment on Setaria faberi (SETFA) [4] (14 DAA (A11: 14 or 15 DAA), adjuvant 0.5% v/v Adigor + 1.0% v/v AMS + 12.5% v/v IPA) came out at 0%.
